Results on two compounds are retold here after publication PMC11950244, “Discovery of novel dual-target inhibitors of LSD1/EGFR for non-small cell lung cancer therapy” (Acta Pharmacologica Sinica, 2025).

Data set [1] in a line: Body weight of H1975 xenograft nude mice. The data set is classed as in vivo. The note with it: 75 and 150 mg/kg i.p. every two days. How it is done: (§1) Nude mice (nu/nu, female, 4–6-week-old) were purchased from Charles River (Beijing, China) and subcutaneously injected with 2 × 10^6 H1975 cells harboring on the right flank. Tumor growth was recorded by measurement of two perpendicular diameters using the equation: π/6 × length × width^2. To explore the effect of L-1 on tumorigenicity in lung cancer, when tumor volumes reached approximately 50 mm^3, mice received either vehicle control, L-1 (75 mg/kg) and L-1 (150 mg/kg), and they were administered every two days by i.p. injection. The mice were sacrificed, and the tumors were excised, imaged and weighed after inhibitor treatments. Statistical analyses have been done by comparison in relation to the control group with a two-tailed unpaired Student’s t test. The animal experiments were performed according to the institutional ethical guidelines approved by the Laboratory Animal Ethics Committee Nankai University.

Data set [2] concerns the target T1, LSD1 (Homo sapiens, UniProt O60341). As to the kind of experiment: LSD1 enzymatic assay.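 As to Bottom: percent inhibition of LSD1 activity from the fitted dose-response curve.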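 As to Top: percent inhibition of LSD1 activity from the fitted dose-response curve.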 The format is biochemical. On the procedure: A total of 12 compounds were purchased from J&K Scientific Ltd. (Shanghai, China). The biological experiments of inhibiting the enzymatic activity of LSD1 by 12 test compounds were conducted by Pharmaron (Beijing, China). Each compound was serially diluted 4-fold in 100% dimethyl sulfoxide (DMSO) from a starting DMSO stock concentration of 20 mM to obtain 10 concentration doses. Seclidemstat was used as a positive control. The diluted compounds were added to the LSD1 assay buffer (50 mM Tris-HCl, pH 7.5, and 1% DMSO) and incubated with LSD1 for 30 min at room temperature. The peptide substrate was then added to initiate the reaction, and the mixture was further incubated for 60 min at room temperature. The reaction was stopped by adding the stop solution, followed by the addition of the detection solution containing protein-A-Eu, streptavidin-d2, and anti-Histone H3 (dimethyl K9) antibody. […] The IC50 was calculated using a nonlinear regression (dose response – variable slope) by fitting the inhibition ratio and log of compound concentrations using Graphpad 8.0.

Data set [3] has as its system H1975 cells-derived xenograft (CDX). In words: H1975 cell-derived xenograft (CDX) mouse model, tumor formation. The settings on record: 75 and 150 mg/kg i.p. every two days, compared to control group. The format is in vivo, nude mice. How it is done: as §1
For data set [4], the system named is LSD1/EGFR relevant downstream signaling pathways. As to the kind of experiment: Western blot of signaling pathway proteins in the H1975 CDX model. The format is in vivo, nude mice. On the procedure:
Cells were lysed with lysis buffer (1.5 M NaCl, 1 M Hepes, 20% NP40, 0.1 M Na pyrophosphate, 0.1 M NaF, 0.1 M Na3VO4, 0.2 M glycerol phosphate) on ice for 30 min and then centrifuged at 12,000 r/min for 15 min at 4 °C. Protein samples were loaded into 12% SDS-PAGE, then separated by running for different voltage, and transferred onto PVDF membranes (Millipore, MA, USA). The membranes were blocked with 5% non-fat milk for 2 h and then incubated overnight at 4 °C or at room temperature for 2 h with the primary antibody and 1 h at room temperature with secondary antibody. Signals were detected using Luminol substrate solution (Millipore, MA, USA).
(In western blotting, separated proteins are transferred to a membrane and probed.)

Data set [5] deals with BaF3 cells stably expressing EGFR (L858R/T790M/C797S). As to the kind of experiment: BaF3 cell assay (CTG luminescence). The note with it: Mus musculus, BaF3, read-out: BaF3 cell assay IC50 (μM) L858R/T790M/C797S.
Method: The following steps were followed for cell culture and compound treatment:
% Inhibition is calculated as follow: %Inhibition=1−LUMcmpd−LUMave−pc/LUMave−vc−LUMave−pc×100
LUMcmpd = LUM for compound being tested
LUMave_pc = Average LUM for positive controls (10 μM Control Compound)
LUMave_vc = Average LUM for vehicle controls (0.1% DMSO)
Data set [6] has as its target T1, LSD1. In words: SPR binding assay (Biacore T200). On the procedure: Surface plasmon resonance (SPR) was employed to evaluate direct binding between compounds and LSD1 using Biacore T200 optical biosensor (Biacore Life Sciences, GE Healthcare). LSD1 was covalently attached to CM5 sensor chip via amine coupling. Binding experiments were conducted at 15 °C in a buffer containing 10 mM HEPES (pH 7.4), 150 mM NaCl, 1% DMSO, and 0.05% Tween, with a flow rate of 30 μL/min. Compounds were serially diluted in the same buffer and injected over the prepared surfaces for 15–25 s at increasing concentrations. Sensorgrams were corrected by subtracting signals from both an untreated reference channel and blank injections. Data analysis was performed using Biacore T200 evaluation software (GE Healthcare).
(SPR reads the build-up and loss of mass on a sensor chip optically.)

The test system of another data set is Ki67. In words: Ki67 immunohistochemical staining of CDX tumors. The format is in vivo, nude mice. The settings on record: CDX tumor, L-1 treatment group. How it is done:
Immunohistochemistry was performed on paraffin-embedded sections. Tissue sections were dewaxed and rehydrated using standard protocol. Antigen retrieval was performed by boiling samples in citrate buffer for 45 min. Endogenous peroxidase activity was inhibited by using 3% hydrogen peroxidase. Sections were blocked in 3% BSA in PBS and incubated in primary antibody (Ki67, CST, MA, USA) overnight at 4 °C. Then the secondary antibody (Goat anti-rabbit IgG (H + L) HRP, Bioworld, OH, USA) was incubated at room temperature for 1.5 h and developed using DAB. Sections were counterstained with hematoxylin.

In data set [7] the test system is H1975 cells (with EGFR mutant). As to the kind of experiment: Cell proliferation assay (cell number counting), H1975. The format is cell-based. How it is done: (§2) Lung cancer H460, H1299, PC9, and H1975 cells were purchased from Procell (Wuhan, China) and cultured in RPMI-1640 medium (Thermo Fisher Scientific, MA, USA) supplemented with 10% fetal bovine serum (FBS, ExCell Bio, Shanghai, China). For cell proliferation assay, the cells were seeded in a 24-well plate (0.5 × 10^4 cells/well), then treated with L-1 with increasing concentrations (0, 2.5, 5, 10, 20, 40 μM) or vehicle alone. Cell numbers were counted using try-pan blue exclusion on the fourth day.

The subject of data set [8] is PC9 cells (with EGFR mutant). As to the kind of experiment: Cell proliferation assay (cell number counting), PC9. The data set is classed as cell-based. How it is done:
as §2

Data set [9] concerns H1299 cells (with EGFR wild type). In words: Cell proliferation assay (cell number counting), H1299. The data set is classed as cell-based. The settings on record: 0-40 μM, counted on the fourth day. On the procedure: as §2
For data set [10], the target named is triple-mutant EGFR (L858R/T790M/C797S) (Homo sapiens, UniProt P00533, C797S/L858R/T790M). As to the kind of experiment: EGFR kinase assay (HTRF), triple mutant. The format is biochemical. How it is done:
The biological experiments of inhibiting the activity of EGFR by test compounds were also performed by Pharmaron (Beijing). To conduct the kinase assay, the following steps were followed:
% Inhibition is calculated as follow: %Inhibition=1−SINGALcmpd−SINGALave−pc/SINGALave−vc−SINGALave−pc×100
SINGALcmpd = singal for compound being tested
SINGALave_pc = singal for positive controls
SINGALave_vc = singal for vehicle controls

The test system of data set [11] is H460 cells (with EGFR wild type). As to the kind of experiment: Cell proliferation assay (cell number counting), H460. The settings on record: 0-40 μM, counted on the fourth day. The data set is classed as cell-based. On the procedure:
as §2

Another data set has as its system EGFR wild-type cells. Further details: method as in Hu et al. [61]. The note with it: ref Hu et al. [61]; cited from earlier work.
A further data set deals with EGFR-mutant NSCLC cells. Further details: method as in Hu et al. [61]. The note with it: ref Hu et al. [61]; cited from earlier work.
[12] abbreviates: concentration-response curve fit parameter.
[13] abbreviates: 0-40 μM, counted on the fourth day.
[14] abbreviates: LSD1 knockdown compared to control cells.

Structures are written as SMILES.

Chain of triple-mutant EGFR (L858R/T790M/C797S) (P00533 25-1210 T790M/C797S/L858R): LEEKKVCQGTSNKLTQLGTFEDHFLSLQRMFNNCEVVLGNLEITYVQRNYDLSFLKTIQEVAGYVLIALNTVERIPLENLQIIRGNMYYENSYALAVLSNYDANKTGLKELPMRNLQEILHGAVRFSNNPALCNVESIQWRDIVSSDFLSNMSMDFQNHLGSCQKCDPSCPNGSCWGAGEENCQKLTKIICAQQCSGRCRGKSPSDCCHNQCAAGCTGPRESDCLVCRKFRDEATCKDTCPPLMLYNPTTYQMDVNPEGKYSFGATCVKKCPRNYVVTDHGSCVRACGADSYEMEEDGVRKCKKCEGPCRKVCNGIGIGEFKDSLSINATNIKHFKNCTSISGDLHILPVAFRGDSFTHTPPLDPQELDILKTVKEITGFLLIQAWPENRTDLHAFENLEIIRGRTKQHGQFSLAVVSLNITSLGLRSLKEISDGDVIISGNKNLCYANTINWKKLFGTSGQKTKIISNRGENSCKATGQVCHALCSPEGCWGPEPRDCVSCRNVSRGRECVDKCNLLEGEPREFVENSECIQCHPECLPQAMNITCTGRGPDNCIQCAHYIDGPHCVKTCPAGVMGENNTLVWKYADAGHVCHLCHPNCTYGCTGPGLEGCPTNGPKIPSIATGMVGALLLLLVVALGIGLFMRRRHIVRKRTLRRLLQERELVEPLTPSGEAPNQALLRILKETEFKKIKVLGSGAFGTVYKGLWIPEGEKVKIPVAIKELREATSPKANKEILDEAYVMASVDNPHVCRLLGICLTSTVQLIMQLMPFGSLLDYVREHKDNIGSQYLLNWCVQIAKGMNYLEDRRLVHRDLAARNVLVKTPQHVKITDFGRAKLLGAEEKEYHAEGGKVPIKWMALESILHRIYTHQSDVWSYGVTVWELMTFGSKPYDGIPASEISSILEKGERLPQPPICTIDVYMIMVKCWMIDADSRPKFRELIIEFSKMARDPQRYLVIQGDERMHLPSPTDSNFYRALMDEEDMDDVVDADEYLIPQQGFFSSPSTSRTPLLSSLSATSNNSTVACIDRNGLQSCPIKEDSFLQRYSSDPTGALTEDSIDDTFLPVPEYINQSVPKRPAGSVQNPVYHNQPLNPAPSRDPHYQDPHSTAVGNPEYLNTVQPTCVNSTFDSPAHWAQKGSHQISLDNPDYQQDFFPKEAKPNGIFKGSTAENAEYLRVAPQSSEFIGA

On to `CCN(CC)c1ccc(/C=C2/C(=O)NC(=O)N(c3ccc(Cl)cc3)C2=O)c(O)c1` [L-1], for which, in data set [1], the “body weight of nude mice” value was “did not affect”. At LSD1 [2], the IC50 amounted to 6.24 µM and the Relative potency % is recorded as 3.7%. Besides, at LSD1 [2] (setting [12]), the Bottom is given as −4.65, the Hillslope came out at 1.26 and the Top came out at 51.52. Besides, in [3], the tumor growth rate result is “slower growth rate”, the tumor size result is given as “smaller tumor size” and the tumor weight result is on record as “lighter tumor weight”. For the same compound, the “LSD1/EGFR relevant downstream signaling pathways (Western blot)” value in data set [4] is reported as “could inhibit”. The IC50 in data set [5] amounted to 5.58 µM. Also, on LSD1 [6], the “Binding to LSD1 by SPR (in words)” value was “specific and reversible binding”; the Kd was 18.2 µM. For the same compound, the “level of Ki67 (IHC)” value with Ki67 was “significantly suppressed”. Moreover, the “cell proliferation, H1975” value in data set [7] (setting [13]) is “significantly inhibited”. Further, the “efficacy after LSD1 knockdown, H1975” value in data set [7] (setting [14]) is listed as “less effective”. Further, in data set [8] (setting [13]), the “cell proliferation, PC9” value is recorded as “significantly inhibited”. In [8] (setting [14]), the “efficacy after LSD1 knockdown, PC9” value was “less effective”. In [9], the “cell proliferation, H1299” value is listed as “not have effect”. The IC50 in [10] was found to be 5.01 µM. The “cell proliferation, H460” value in [11] is “not have effect”.

Consider `C=CC(=O)Nc1cc(Nc2nccc(-c3cn(C)c4ccccc34)n2)c(OC)cc1N(C)CCN(C)C` [Osimertinib], for which the “effect on EGFR wild-type cells” value with EGFR wild-type cells is reported as “less pronounced impact”. Further, the “effect on EGFR-mutant cells” value in the data set with EGFR-mutant NSCLC cells is “significant inhibitory effect”.

What is called Kd is the constant that tells how readily two partners part at equilibrium. Read a high Kd as weaker binding.
